Test results reported in patent US20240301319A1, “PERFUMING COMPOSITIONS” (FIRMNICH SA, priority 2017, published 2024).
Counter-ions that a name gives are not always drawn.

Legend:
[1] = Volatility of perfuming compounds (Tables 4 to 10), with top/middle/bottom note type; assay type: physicochemical
In short: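 Note type follows from air volatility (μg/l): bottom 49–0.1, middle 99–50, top 70,000–100. Compounds are listed within watery, green, fruity, citrus, sweet, gourmand and woody families.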

[2] = Odor threshold and odor value of perfuming compounds (Tables 4 to 10)
[3] = note type (Top/Middle/Bottom) by volatility, perfuming compounds having a green note
[4] = perfuming compounds having a green note
[5] = Table 6, perfuming compounds having a fruity note
[6] = Table 6, perfuming compounds having a fruity note, note type by volatility
[7] = Table 7, citrus note, top, middle or bottom note
[8] = Table 7, citrus note, equals volatility divided by odor threshold
[9] = Table 8, perfuming compounds having a sweet note
[10] = Table 8, perfuming compounds having a sweet note, note type by volatility
[11] = Table 4, watery note, top, middle or bottom note
[12] = Table 4, watery note, equals volatility divided by odor threshold
[13] = Table 9, perfuming compounds having a gourmand note, note type by volatility

CC1=C[C@H]2C[C@H](C(C)C)[C@@H]1[C@@H](C1OCCO1)C2 (racemic)
Type [1, 3]: Bottom | Volatility (μg/l air) [1, 4]: 11.75 μg/l air | Odor Threshold (μg/l air) [2, 4]: 1.51E−01 μg/l air

C=CC1(C)CCCC(C)(C)O1 (racemic)
Type [1, 3]: Top | Volatility (μg/l air) [1, 4]: 23116.66 μg/l air | Odor Threshold (μg/l air) [2, 4]: 1.64E−01 μg/l air

CC(=O)/C=C/C1C(C)=CCCC1(C)C (racemic)
Type [1, 3]: Middle | Volatility (μg/l air) [1, 4]: 68.11 μg/l air | Odor Threshold (μg/l air) [2, 4]: 5.30E−04 μg/l air

CC(=O)OC(C)CC(C)(C)c1ccccc1 (racemic) [(+−)-1,3-DIMETHYL-3-PHENYLBUTYL ACETATE]
Volatility [1, 5]: 50.65 μg/l air | Type [1, 6]: Middle | Type [1, 3]: Middle | Volatility (μg/l air) [1, 4]: 50.65 μg/l air | Odor Threshold [2, 5]: 1.06E−02 μg/l air | Odor Value [2, 5]: 4.77E+03 | Odor Threshold (μg/l air) [2, 4]: 1.06E−02 μg/l air

C=CC(C)(CCC=C(C)C)OC(C)=O (racemic) [(+−)-1,5-DIMETHYL-1-VINYL-4-HEXENYL ACETATE]
Type [1, 6]: TOP (perfuming compounds having a volatility ranging from 70,000 to 100 μg/l in air are referred to as “top notes”) | Type [1, 7]: Top | Type [1, 3]: Top | Volatility (μg/l air) [1, 4]: 339.21 μg/l air | Odor Threshold (μg/l air) ([2]; Table 7, citrus note): 7.40E−02 μg/l air | Odor Threshold (μg/l air) [2, 4]: 7.40E−02 μg/l air

CCCC(S)CCOC (racemic) [(+−)-1-METHOXY-3-HEXANETHIOL]
Type [1, 3]: Top | Volatility (μg/l air) [1, 4]: 2534.77 μg/l air | Odor Threshold (μg/l air) [2, 4]: 1.92E−07 μg/l air

CC(=O)OC(C)c1ccccc1 (racemic) [(+−)-1-PHENYLETHYL ACETATE]
Volatility [1, 5]: 387.96 μg/l air | Type [1, 6]: TOP (perfuming compounds having a volatility ranging from 70,000 to 100 μg/l in air are referred to as “top notes”) | Volatility (μg/l air) ([1]; Table 7, citrus note): 387.96 μg/l air | Type [1, 7]: Top | Odor Threshold (μg/l air) ([2]; Table 7, citrus note): 4.43E−02 μg/l air | Odor Value [2, 8]: 8.75E+03

C=CC(O)CCCCC (racemic) [(+−)-1-octen-3-ol]
Type [1, 3]: Top | Volatility (μg/l air) [1, 4]: 3030.11 μg/l air | Odor Threshold (μg/l air) [2, 4]: 1.77E−03 μg/l air

CC(=O)OC(c1ccccc1)C(Cl)(Cl)Cl (racemic) [(+−)-2,2,2-TRICHLORO-1-PHENYLETHYL ACETATE]
Volatility [1, 5]: 11.96 μg/l air | Type [1, 6]: Bottom | Volatility (μg/l air) ([1]; Table 7, citrus note): 11.96 μg/l air | Type [1, 7]: Bottom | Odor Threshold [2, 5]: 1.15E−03 μg/l air | Odor Value [2, 5]: 1.04E+04 | Odor Threshold (μg/l air) ([2]; Table 7, citrus note): 1.15E−03 μg/l air | Odor Value [2, 8]: 1.04E+04

CCCCCC1CCCC1O (racemic) [(+−)-2-PENTYL-1-CYCLOPENTANOL]
Volatility [1, 9]: 97.79 μg/l air | Type [1, 10]: Middle | Odor Threshold [2, 9]: 5.43E−03 μg/l air | Odor Value [2, 9]: 1.80E+04

CC(C=O)Cc1ccc(C(C)(C)C)cc1 (racemic) [(+−)-2-methyl-3-[4-(2-methyl-2-propanyl)phenyl]propanal]
Volatility (μg/l air) ([1]; Table 4, watery note): 12.86 μg/l air | Type [1, 11]: bottom (perfuming compounds having a volatility ranging from 49 to 0.1 μg/l in air are referred to as “bottom notes”) | Odor Threshold (μg/l air) ([2]; Table 4, watery note): 2.39E−04 μg/l air | Odor Value [2, 12]: 5.38E+04

CCCCCCCCC(C)C=O (racemic) [(+−)-2-methyldecanal″]
Volatility (μg/l air) ([1]; Table 4, watery note): 297.74 μg/l air | Type [1, 11]: TOP (perfuming compounds having a volatility ranging from 70,000 to 100 μg/l in air are referred to as “top notes”) | Odor Threshold (μg/l air) ([2]; Table 4, watery note): 9.00E−04 μg/l air | Odor Value [2, 12]: 3.31E+05

CCCCCCCCCC(C)C=O (racemic) [(+−)-2-methylundecanal]
Volatility (μg/l air) ([1]; Table 4, watery note): 75.55 μg/l air | Type [1, 11]: middle (perfuming compounds having a volatility ranging from 99 to 50 μg/l in air are referred to as “middle notes”) | Odor Threshold (μg/l air) ([2]; Table 4, watery note): 7.24E−05 μg/l air | Odor Value [2, 12]: 1.04E+06

CCCCCC1CCCC1=O (racemic) [(+−)-2-pentylcyclopentanone]
Volatility [1, 5]: 560.22 μg/l air | Type [1, 6]: TOP (perfuming compounds having a volatility ranging from 70,000 to 100 μg/l in air are referred to as “top notes”) | Volatility [1, 9]: 560.22 μg/l air | Type [1, 10]: Top | Volatility ([1]; Table 9, gourmand note): 560.22 μg/l air | Type [1, 13]: Top | Odor Threshold [2, 9]: 1.28E−03 μg/l air | Odor Value [2, 9]: 4.38E+05 | Odor Threshold ([2]; Table 9, gourmand note): 1.28E−03 μg/l air

CC(CO)c1ccccc1 (racemic) [(+−)-2-phenyl-1-propanol]
Type [1, 3]: Top | Volatility (μg/l air) [1, 4]: 142.19 μg/l air | Odor Threshold (μg/l air) [2, 4]: 3.62E−02 μg/l air

CCCCCC(C#N)CCC (racemic) [(+−)-2-propylheptanenitrile]
Volatility [1, 5]: 439.00 μg/l air | Type [1, 6]: TOP (perfuming compounds having a volatility ranging from 70,000 to 100 μg/l in air are referred to as “top notes”) | Volatility (μg/l air) ([1]; Table 7, citrus note): 439.00 μg/l air | Type [1, 7]: Top | Odor Threshold (μg/l air) ([2]; Table 7, citrus note): 7.83E−02 μg/l air | Odor Value [2, 8]: 5.61E+03

CC(CC=O)CC(C)(C)C (racemic) [(+−)-3,5,5-TRIMETHYLHEXANAL]
Type [1, 3]: Top | Volatility (μg/l air) [1, 4]: 12045.92 μg/l air | Odor Threshold (μg/l air) [2, 4]: 9.37E−03 μg/l air

CC(C)=CCCC(C)CCOC=O (racemic) [(+−)-3,7-DIMETHYL-6-OCTENYL FORMATE]
Volatility [1, 5]: 262.84 μg/l air | Type [1, 6]: TOP (perfuming compounds having a volatility ranging from 70,000 to 100 μg/l in air are referred to as “top notes”) | Type [1, 3]: Top | Volatility (μg/l air) [1, 4]: 262.84 μg/l air | Odor Threshold (μg/l air) [2, 4]: 1.72E−03 μg/l air

C=CC(C)(O)CCC=C(C)C (racemic) [(+−)-3,7-dimethyl-1,6-octadien-3-ol]
Volatility [1, 5]: 896.72 μg/l air | Type [1, 6]: TOP (perfuming compounds having a volatility ranging from 70,000 to 100 μg/l in air are referred to as “top notes”) | Volatility (μg/l air) ([1]; Table 7, citrus note): 896.72 μg/l air | Type [1, 7]: Top | Odor Threshold (μg/l air) ([2]; Table 7, citrus note): 8.89E−05 μg/l air | Odor Value [2, 8]: 1.01E+07

CC(C=O)Cc1ccc2c(c1)OCO2 (racemic) [(+−)-3-(1,3-BENZODIOXOL-5-YL)-2-METHYLPROPANAL]
Volatility (μg/l air) ([1]; Table 4, watery note): 3.57 μg/l air | Type [1, 11]: bottom (perfuming compounds having a volatility ranging from 49 to 0.1 μg/l in air are referred to as “bottom notes”) | Odor Threshold (μg/l air) ([2]; Table 4, watery note): 2.23E−04 μg/l air | Odor Value [2, 12]: 1.60E+04

CC(C)c1cccc(C(C)CC=O)c1 (racemic) [(+−)-3-(3-ISOPROPYL-1-PHENYL)BUTANAL]
Volatility (μg/l air) ([1]; Table 4, watery note): 14.74 μg/l air | Type [1, 11]: bottom (perfuming compounds having a volatility ranging from 49 to 0.1 μg/l in air are referred to as “bottom notes”) | Type [1, 3]: Bottom | Volatility (μg/l air) [1, 4]: 14.74 μg/l air | Odor Threshold (μg/l air) ([2]; Table 4, watery note): 7.71E−04 μg/l air | Odor Value [2, 12]: 1.91E+04 | Odor Threshold (μg/l air) [2, 4]: 7.71E−04 μg/l air

CC(C=O)Cc1ccc(C(C)C)cc1 (racemic) [(+−)-3-(4-isopropylphenyl)-2-methylpropanal]
Volatility (μg/l air) ([1]; Table 4, watery note): 24.85 μg/l air | Type [1, 11]: bottom (perfuming compounds having a volatility ranging from 49 to 0.1 μg/l in air are referred to as “bottom notes”) | Odor Threshold (μg/l air) ([2]; Table 4, watery note): 3.00E−03 μg/l air | Odor Value [2, 12]: 8.28E+03

COc1ccc(CC(C)C=O)cc1 (racemic) [(+−)-3-(4-methoxyphenyl)-2-methylpropanal]
Volatility (μg/l air) ([1]; Table 4, watery note): 18.99 μg/l air | Type [1, 11]: bottom (perfuming compounds having a volatility ranging from 49 to 0.1 μg/l in air are referred to as “bottom notes”) | Type [1, 3]: Bottom | Volatility (μg/l air) [1, 4]: 18.99 μg/l air | Odor Threshold (μg/l air) ([2]; Table 4, watery note): 9.79E−03 μg/l air | Odor Value [2, 12]: 1.94E+03 | Odor Threshold (μg/l air) [2, 4]: 9.79E−03 μg/l air

CCCC(S)CCOC(C)=O (racemic) [(+−)-3-mercaptohexyl acetate]
Volatility [1, 5]: 421.09 μg/l air | Type [1, 6]: TOP (perfuming compounds having a volatility ranging from 70,000 to 100 μg/l in air are referred to as “top notes”) | Type [1, 3]: Top | Volatility (μg/l air) [1, 4]: 421.09 μg/l air | Odor Threshold (μg/l air) [2, 4]: 2.72E−06 μg/l air

CCCCCCC1CCC(=O)O1 (racemic) [(+−)-4-DECANOLIDE]
Volatility [1, 5]: 10.49 μg/l air | Type [1, 6]: Bottom | Volatility [1, 9]: 10.49 μg/l air | Type [1, 10]: Bottom | Volatility ([1]; Table 9, gourmand note): 10.49 μg/l air | Type [1, 13]: Bottom | Odor Threshold [2, 5]: 1.61E−04 μg/l air | Odor Value [2, 5]: 6.51E+04 | Odor Threshold [2, 9]: 1.61E−04 μg/l air | Odor Value [2, 9]: 6.51E+04 | Odor Threshold ([2]; Table 9, gourmand note): 1.61E−04 μg/l air

CCCC1CCC(=O)O1 (racemic) [(+−)-4-HEPTANOLIDE]
Volatility [1, 9]: 295.34 μg/l air | Type [1, 10]: Top | Odor Threshold [2, 9]: 5.18E−04 μg/l air | Odor Value [2, 9]: 5.70E+05

CCCCCC1CCC(=O)O1 (racemic) [(+−)-4-NONANOLIDE]
Volatility [1, 5]: 27.42 μg/l air | Type [1, 6]: Bottom | Volatility ([1]; Table 9, gourmand note): 27.42 μg/l air | Type [1, 13]: Bottom | Odor Threshold [2, 5]: 1.45E−04 μg/l air | Odor Value [2, 5]: 1.89E+05 | Odor Threshold ([2]; Table 9, gourmand note): 1.45E−04 μg/l air

CCCCCCCCC1CCC(=O)O1 (racemic) [(+−)-5-octyldihydro-2(3H)-furanone]
Volatility [1, 5]: 1.44 μg/l air | Type [1, 6]: Bottom | Odor Threshold [2, 5]: 2.85E−05 μg/l air | Odor Value [2, 5]: 5.05E+04
